Experimental data reported in patent publication US20210309619A1, “ISOXAZOLIN-5-ONE DERIVATIVES AND HERBICIDES CONTAINING THE SAME AS ACTIVE INGREDIENTS” (HOKKO CHEMICAL INDUSTRY CO., LTD., priority 2018, published 2021).

Tests used:
Format in all cases: in vivo
Echinochloa crus-galli [1] = assay: Herbicidal effect test by treatment of rice paddy soil (Test Example 1); conditions: 120 g/10 a, treated immediately after seeding, 14 days after treatment
Method: (§1) Wagner pots with an area of 1/10000 ares were filled with a paddy soil, and a compound fertilizer (N:P:K=17:17:17) was mixed after water was added, followed by soil puddling. Then, Echinochloa crus-galli, broad leaf weeds (Lindernia pyxidaria and Monochoria vaginalis) and Scirpus juncoides, 30 seeds each, were sown in a depth of 0 to 1 cm. Water was poured immediately after seeding, and the water depth was kept at about 3 cm. A subsequent management was conducted in a glass greenhouse. Immediately after that, emulsions prepared using the compounds in Table 3 below according to Formulation Example 5 were diluted with water, and a certain amount of the water-diluted agent solutions were dropped. A converted amount of the applied active ingredient corresponded to 120 g per 10 ares.
(§2) This test was conducted in a double system per one agent solution concentration area, and the herbicidal rates (%) were determined by the following equation (Math. 1) 14 days after the treatment with the agents.
(§3) Herbicidal Rate (%)={1−(Average Dry Weight (g) of Plant of Treated Area)/(Average Dry Weight (g) of Plant of Untreated Area)}×100 [Math. 1]

Lindernia pyxidaria [2] = assay: as above; conditions: 120 g/10 a, treated immediately after seeding, 14 days after treatment
Method: as §1, §2, §3

Monochoria vaginalis [3] = assay: as above; conditions: 120 g/10 a, treated immediately after seeding, 14 days after treatment
Method: as §1, §2, §3

Scirpus juncoides [4] = assay: as above; conditions: 120 g/10 a, treated immediately after seeding, 14 days after treatment
Method: as §1, §2, §3

Echinochloa crus-galli [5] = assay: Herbicidal effect test by treatment during growing period in paddy rice cultivation (Test Example 2); conditions: 120 g/10 a, treated seven days after seeding, 14 days after treatment
From the text: as §3
as §1, with “after addition of water,” for “after water was added,”, “greenhouse. Emulsions” for “greenhouse. Immediately after that, emulsions”, “Table 4” for “Table 3”, “with water seven days after seeding,” for “with water,”, “ares. The test was conducted in a double system per one agent solution concentration area, and the herbicidal rates (%) were determined by the equation (Math. 1) 14 days after the treatment with the agents. In this regard, the compound numbers in Table 4 are the same as those in Table 1 and Table 2 above.” for “ares.”

Lindernia pyxidaria [6] = assay: as above; conditions: 120 g/10 a, treated seven days after seeding, 14 days after treatment
From the text: as §3
as §1, with “after addition of water,” for “after water was added,”, “greenhouse. Emulsions” for “greenhouse. Immediately after that, emulsions”, “Table 4” for “Table 3”, “with water seven days after seeding,” for “with water,”, “ares. The test was conducted in a double system per one agent solution concentration area, and the herbicidal rates (%) were determined by the equation (Math. 1) 14 days after the treatment with the agents. In this regard, the compound numbers in Table 4 are the same as those in Table 1 and Table 2 above.” for “ares.”

Monochoria vaginalis [7] = assay: as above; conditions: 120 g/10 a, treated seven days after seeding, 14 days after treatment
From the text: as §3
as §1, with “after addition of water,” for “after water was added,”, “greenhouse. Emulsions” for “greenhouse. Immediately after that, emulsions”, “Table 4” for “Table 3”, “with water seven days after seeding,” for “with water,”, “ares. The test was conducted in a double system per one agent solution concentration area, and the herbicidal rates (%) were determined by the equation (Math. 1) 14 days after the treatment with the agents. In this regard, the compound numbers in Table 4 are the same as those in Table 1 and Table 2 above.” for “ares.”

Scirpus juncoides [8] = assay: as above; conditions: 120 g/10 a, treated seven days after seeding, 14 days after treatment
From the text: as §3
as §1, with “after addition of water,” for “after water was added,”, “greenhouse. Emulsions” for “greenhouse. Immediately after that, emulsions”, “Table 4” for “Table 3”, “with water seven days after seeding,” for “with water,”, “ares. The test was conducted in a double system per one agent solution concentration area, and the herbicidal rates (%) were determined by the equation (Math. 1) 14 days after the treatment with the agents. In this regard, the compound numbers in Table 4 are the same as those in Table 1 and Table 2 above.” for “ares.”

Amaranthus viridis [9] = assay: Herbicidal effect test by treatment of dry field farming soil (Test Example 3); conditions: 120 g/10 a, sprayed one day after seeding, 14 days after treatment
From the text: (§4) Herbicidal Rate (%)={1−(Average Dry Weight (g) of Plant of Treated Area)/(Average Dry Weight (g) of Plant of Untreated Area)}×100 [Math. 1] Pots with a size of 36 cm^2 were filled with a dry field farming soil (alluvium). The soil of the top layer of 1 cm and seeds of weeds, namely southern crabgrass, Echinochloa crus-galli, Chenopodium album and Amaranthus viridis, 20 seeds each, were evenly mixed, and the top layer was gently pressed. Emulsions prepared using the compounds in Table 5 below according to Formulation Example 5 were diluted with water one day after seeding, and the water-diluted agent solutions were sprayed to the soil surfaces at a ratio of 100 liters per 10 ares. A converted amount of the applied active ingredient corresponded to 120 g per 10 ares. The herbicidal effects were evaluated by the same standard as that in Test Example 1, 14 days after the treatment with the agents. In this regard, the compound numbers in Table 5 are the same as those in Table 1 and Table 2 above.

Chenopodium album [10] = assay: as above; conditions: 120 g/10 a, sprayed one day after seeding, 14 days after treatment
From the text: as §4

Echinochloa crus-galli [11] = assay: as above; conditions: 120 g/10 a, sprayed one day after seeding, 14 days after treatment
From the text: as §4

southern crabgrass [12] = assay: as above; conditions: 120 g/10 a, sprayed one day after seeding, 14 days after treatment
From the text: as §4

Amaranthus viridis [13] = assay: Herbicidal effect test by treatment of stem and leaf in dry field farming (Test Example 4); conditions: 120 g/10 a, stem and leaf treatment seven days after seeding, 14 days after treatment
From the text: as §4, with “Table 6” for “Table 5”, “water seven days” for “water one day”

Chenopodium album [14] = assay: as above; conditions: 120 g/10 a, stem and leaf treatment seven days after seeding, 14 days after treatment
From the text: as §4, with “Table 6” for “Table 5”, “water seven days” for “water one day”

Echinochloa crus-galli [15] = assay: as above; conditions: 120 g/10 a, stem and leaf treatment seven days after seeding, 14 days after treatment
From the text: as §4, with “Table 6” for “Table 5”, “water seven days” for “water one day”

southern crabgrass [16] = assay: as above; conditions: 120 g/10 a, stem and leaf treatment seven days after seeding, 14 days after treatment
From the text: as §4, with “Table 6” for “Table 5”, “water seven days” for “water one day”

CCOC(=O)N(c1ccccc1Cc1c(C)n(C2CCCCC2OC)oc1=O)S(=O)(=O)C(F)(F)F (stereo not shown) [Compound 190, ethyl N-[2-[[(2-methoxycyclohexyl)-3-methyl-5-oxoisoxazol-4-yl]methyl]phenyl]-N-(trifluoromethylsulfonyl)carbamate]
Herbicidal rate, Echinochloa crus-galli (Echinochloa crus-galli [1]): 100%
Herbicidal rate, Lindernia pyxidaria (Lindernia pyxidaria [2]): 100%
Herbicidal rate, Monochoria vaginalis (Monochoria vaginalis [3]): 100%
Herbicidal rate, Scirpus juncoides (Scirpus juncoides [4]): 100%
Herbicidal rate, Echinochloa crus-galli (Echinochloa crus-galli [5]): 100%
Herbicidal rate, Lindernia pyxidaria (Lindernia pyxidaria [6]): 80%
Herbicidal rate, Monochoria vaginalis (Monochoria vaginalis [7]): 90%
Herbicidal rate, Scirpus juncoides (Scirpus juncoides [8]): 90%
Herbicidal rate, Amaranthus viridis (Amaranthus viridis [9]): 90%
Herbicidal rate, Chenopodium album (Chenopodium album [10]): 60%
Herbicidal rate, Echinochloa crus-galli (Echinochloa crus-galli [11]): 90%
Herbicidal rate, southern crabgrass (southern crabgrass [12]): 90%
Herbicidal rate, Amaranthus viridis (Amaranthus viridis [13]): 90%
Herbicidal rate, Chenopodium album (Chenopodium album [14]): 90%
Herbicidal rate, Echinochloa crus-galli (Echinochloa crus-galli [15]): 90%
Herbicidal rate, southern crabgrass (southern crabgrass [16]): 90%

CCCOC(=O)N(c1ccccc1Cc1c(C)n(C2CCCC2OC)oc1=O)S(=O)(=O)C(F)(F)F (stereo not shown) [Compound 200]
Herbicidal rate, Echinochloa crus-galli (Echinochloa crus-galli [1]): 100%
Herbicidal rate, Lindernia pyxidaria (Lindernia pyxidaria [2]): 100%
Herbicidal rate, Monochoria vaginalis (Monochoria vaginalis [3]): 100%
Herbicidal rate, Scirpus juncoides (Scirpus juncoides [4]): 100%
Herbicidal rate, Echinochloa crus-galli (Echinochloa crus-galli [5]): 100%
Herbicidal rate, Lindernia pyxidaria (Lindernia pyxidaria [6]): 80%
Herbicidal rate, Monochoria vaginalis (Monochoria vaginalis [7]): 90%
Herbicidal rate, Scirpus juncoides (Scirpus juncoides [8]): 90%
Herbicidal rate, Amaranthus viridis (Amaranthus viridis [9]): 60%
Herbicidal rate, Chenopodium album (Chenopodium album [10]): 60%
Herbicidal rate, Echinochloa crus-galli (Echinochloa crus-galli [11]): 90%
Herbicidal rate, southern crabgrass (southern crabgrass [12]): 90%
Herbicidal rate, Amaranthus viridis (Amaranthus viridis [13]): 90%
Herbicidal rate, Chenopodium album (Chenopodium album [14]): 90%
Herbicidal rate, Echinochloa crus-galli (Echinochloa crus-galli [15]): 90%
Herbicidal rate, southern crabgrass (southern crabgrass [16]): 80%

COC1CCCC1n1oc(=O)c(Cc2ccccc2N(C(=O)OC(C)C)S(=O)(=O)C(F)(F)F)c1C (stereo not shown) [Compound 212]
Herbicidal rate, Echinochloa crus-galli (Echinochloa crus-galli [1]): 100%
Herbicidal rate, Lindernia pyxidaria (Lindernia pyxidaria [2]): 100%
Herbicidal rate, Monochoria vaginalis (Monochoria vaginalis [3]): 100%
Herbicidal rate, Scirpus juncoides (Scirpus juncoides [4]): 100%
Herbicidal rate, Echinochloa crus-galli (Echinochloa crus-galli [5]): 100%
Herbicidal rate, Lindernia pyxidaria (Lindernia pyxidaria [6]): 80%
Herbicidal rate, Monochoria vaginalis (Monochoria vaginalis [7]): 90%
Herbicidal rate, Scirpus juncoides (Scirpus juncoides [8]): 90%
Herbicidal rate, Amaranthus viridis (Amaranthus viridis [9]): 60%
Herbicidal rate, Chenopodium album (Chenopodium album [10]): 60%
Herbicidal rate, Echinochloa crus-galli (Echinochloa crus-galli [11]): 90%
Herbicidal rate, southern crabgrass (southern crabgrass [12]): 90%
Herbicidal rate, Amaranthus viridis (Amaranthus viridis [13]): 90%
Herbicidal rate, Chenopodium album (Chenopodium album [14]): 90%
Herbicidal rate, Echinochloa crus-galli (Echinochloa crus-galli [15]): 90%
Herbicidal rate, southern crabgrass (southern crabgrass [16]): 80%

COC1CCCC1n1oc(=O)c(Cc2ccccc2N(C(=O)OCC(C)C)S(=O)(=O)C(F)(F)F)c1C (stereo not shown) [Compound 248]
Herbicidal rate, Echinochloa crus-galli (Echinochloa crus-galli [1]): 100%
Herbicidal rate, Lindernia pyxidaria (Lindernia pyxidaria [2]): 100%
Herbicidal rate, Monochoria vaginalis (Monochoria vaginalis [3]): 100%
Herbicidal rate, Scirpus juncoides (Scirpus juncoides [4]): 100%
Herbicidal rate, Echinochloa crus-galli (Echinochloa crus-galli [5]): 100%
Herbicidal rate, Lindernia pyxidaria (Lindernia pyxidaria [6]): 80%
Herbicidal rate, Monochoria vaginalis (Monochoria vaginalis [7]): 90%
Herbicidal rate, Scirpus juncoides (Scirpus juncoides [8]): 90%
Herbicidal rate, Amaranthus viridis (Amaranthus viridis [9]): 60%
Herbicidal rate, Chenopodium album (Chenopodium album [10]): 60%
Herbicidal rate, Echinochloa crus-galli (Echinochloa crus-galli [11]): 90%
Herbicidal rate, southern crabgrass (southern crabgrass [12]): 90%
Herbicidal rate, Amaranthus viridis (Amaranthus viridis [13]): 90%
Herbicidal rate, Chenopodium album (Chenopodium album [14]): 90%
Herbicidal rate, Echinochloa crus-galli (Echinochloa crus-galli [15]): 90%
Herbicidal rate, southern crabgrass (southern crabgrass [16]): 80%

COC1CCCCC1n1oc(=O)c(Cc2ccccc2N(C(=O)OCC(C)C)S(=O)(=O)C(F)(F)F)c1C (stereo not shown) [Compound 250]
Herbicidal rate, Echinochloa crus-galli (Echinochloa crus-galli [1]): 100%
Herbicidal rate, Lindernia pyxidaria (Lindernia pyxidaria [2]): 100%
Herbicidal rate, Monochoria vaginalis (Monochoria vaginalis [3]): 100%
Herbicidal rate, Scirpus juncoides (Scirpus juncoides [4]): 100%
Herbicidal rate, Echinochloa crus-galli (Echinochloa crus-galli [5]): 100%
Herbicidal rate, Lindernia pyxidaria (Lindernia pyxidaria [6]): 90%
Herbicidal rate, Monochoria vaginalis (Monochoria vaginalis [7]): 90%
Herbicidal rate, Scirpus juncoides (Scirpus juncoides [8]): 90%
Herbicidal rate, Amaranthus viridis (Amaranthus viridis [9]): 90%
Herbicidal rate, Chenopodium album (Chenopodium album [10]): 60%
Herbicidal rate, Echinochloa crus-galli (Echinochloa crus-galli [11]): 90%
Herbicidal rate, southern crabgrass (southern crabgrass [12]): 90%
Herbicidal rate, Amaranthus viridis (Amaranthus viridis [13]): 90%
Herbicidal rate, Chenopodium album (Chenopodium album [14]): 90%
Herbicidal rate, Echinochloa crus-galli (Echinochloa crus-galli [15]): 90%
Herbicidal rate, southern crabgrass (southern crabgrass [16]): 90%

COC1CCCC1n1oc(=O)c(Cc2ccccc2N(C(=O)Oc2ccccc2)S(=O)(=O)C(F)(F)F)c1C (stereo not shown) [Compound 286]
Herbicidal rate, Echinochloa crus-galli (Echinochloa crus-galli [1]): 100%
Herbicidal rate, Lindernia pyxidaria (Lindernia pyxidaria [2]): 100%
Herbicidal rate, Monochoria vaginalis (Monochoria vaginalis [3]): 100%
Herbicidal rate, Scirpus juncoides (Scirpus juncoides [4]): 100%
Herbicidal rate, Echinochloa crus-galli (Echinochloa crus-galli [5]): 100%
Herbicidal rate, Lindernia pyxidaria (Lindernia pyxidaria [6]): 80%
Herbicidal rate, Monochoria vaginalis (Monochoria vaginalis [7]): 90%
Herbicidal rate, Scirpus juncoides (Scirpus juncoides [8]): 90%
Herbicidal rate, Amaranthus viridis (Amaranthus viridis [9]): 60%
Herbicidal rate, Chenopodium album (Chenopodium album [10]): 60%
Herbicidal rate, Echinochloa crus-galli (Echinochloa crus-galli [11]): 90%
Herbicidal rate, southern crabgrass (southern crabgrass [12]): 90%
Herbicidal rate, Amaranthus viridis (Amaranthus viridis [13]): 90%
Herbicidal rate, Chenopodium album (Chenopodium album [14]): 90%
Herbicidal rate, Echinochloa crus-galli (Echinochloa crus-galli [15]): 90%
Herbicidal rate, southern crabgrass (southern crabgrass [16]): 80%

COC1CCCC1n1oc(=O)c(Cc2ccccc2N(S(=O)(=O)C(F)(F)F)S(=O)(=O)C(F)(F)F)c1C (stereo not shown) [Compound 349, 1,1,1-trifluoro-N-[2-[[(2-methoxycyclopentyl)-3-methyl-5-oxoisoxazol-4-yl]methyl]phenyl]-N-(trifluoromethylsulfonyl)methanesulfonamide]
Herbicidal rate, Echinochloa crus-galli (Echinochloa crus-galli [1]): 100%
Herbicidal rate, Lindernia pyxidaria (Lindernia pyxidaria [2]): 100%
Herbicidal rate, Monochoria vaginalis (Monochoria vaginalis [3]): 100%
Herbicidal rate, Scirpus juncoides (Scirpus juncoides [4]): 90%
Herbicidal rate, Echinochloa crus-galli (Echinochloa crus-galli [5]): 100%
Herbicidal rate, Lindernia pyxidaria (Lindernia pyxidaria [6]): 80%
Herbicidal rate, Monochoria vaginalis (Monochoria vaginalis [7]): 80%
Herbicidal rate, Scirpus juncoides (Scirpus juncoides [8]): 90%
Herbicidal rate, Amaranthus viridis (Amaranthus viridis [9]): 90%
Herbicidal rate, Chenopodium album (Chenopodium album [10]): 60%
Herbicidal rate, Echinochloa crus-galli (Echinochloa crus-galli [11]): 90%
Herbicidal rate, southern crabgrass (southern crabgrass [12]): 90%
Herbicidal rate, Amaranthus viridis (Amaranthus viridis [13]): 80%
Herbicidal rate, Chenopodium album (Chenopodium album [14]): 80%
Herbicidal rate, Echinochloa crus-galli (Echinochloa crus-galli [15]): 90%
Herbicidal rate, southern crabgrass (southern crabgrass [16]): 80%
